Reference: US20240263068A1, “AIE Fluorescent Probe Composition, Method and Device for Measuring CMC of Surfactant Solution, and Method and Device for CMC Determination” (Moon House (China) Co., Ltd., priority 2022, published 2024)
Read-outs that look alike come from different tables or passages of the source. Each block holds one compound with its values, some of them ahead of it.

Tests used:
[1] = From the text: It is generally believed that the type or polarity of a solvent almost has no influence on the fluorescence absorption or emission spectrum of the HPS.
[2] = Fluorescence emission peaks excited by 365 nm ultraviolet light; format: physicochemical
From the text: That is, the wavelength range of 400-550 nm within which the emission peaks of the fluorescent whitening agent CBS occur is avoided. In this way, the interference of the fluorescent whitening agent with the CMC determination result may be avoided.

[3] = cited from earlier work

SMILES: O=S(=O)([O-])c1ccccc1C=Cc1ccc(-c2ccc(C=Cc3ccccc3S(=O)(=O)[O-])cc2)cc1.[Na+].[Na+] [CBS]
- Wavelength range of emission peaks ([2]; fluorescent whitening agent in detergent): 400-550 nm

SMILES: c1ccc(C2=C(c3ccccc3)[Si](c3ccccc3)(c3ccccc3)C(c3ccccc3)=C2c2ccccc2)cc1 [HPS, 1,1,2,3,4,5-hexaphenylsilole]
- Solubility of HPS powder in water [1]: insoluble in water
- Fluorescence emission peak, sharp with high intensity ([2]; excited by 365 nm): 350-370 nm
- Fluorescence emission peak, wide and short with relatively low intensity ([2]; excited by 365 nm): 720-740 nm
- Solubility of HPS ([3]; alcohols such as methanol): slightly soluble
- Solubility of HPS ([3]; good solvents such as acetonitrile, tetrahydrofuran and chloroform): highly soluble
- Solubility of HPS ([3]; water): completely insoluble

SMILES: C[S+](C)[O-] [DMSO]
- Solubility of HPS to Solvent [1]: soluble

Continued, values first:

- Solubility of HPS to Solvent [1]: soluble
SMILES: c1ccc2ncccc2c1 [Quinoline]

- Solubility of HPS to Solvent [1]: slightly soluble
SMILES: CCCCCO [n-pentanol]

- Solubility of HPS to Solvent [1]: soluble
SMILES: CN1CCCC1=O [NMP]
